According to US12466839B2, “Allosteric AKT inhibitors for use in the treatment of Hereditary Hemorrhagic Telangiectasia” (VADERIS THERAPEUTICS AG, priority 2020, dated 2025):
“Also recorded” adds a separate entry of the source.

Assays:
[1] = test system: angiogenesis in C57Bl/6J mice retinas; test: Neonatal retinal angiogenesis model in wild-type mice; type: in vivo, mouse (C57Bl/6J); conditions: for anti-angiogenic properties (overall conclusion): mouse retinas
Text: (§1) For the retinal vascular network, quantification of the number of AV shunts per mouse was done manually. […] A custom own-lab made macro allowed automatic processing of the images, using the same processing and quantification parameters. Briefly, the brightness of the images was enhanced by modifying the pixel extreme values, which depends on the specific image histogram content. A Gaussian filter was applied to reduce the intensity in homogeneities. The filter order depended on the image resolution. Next, the threshold step was computed, based on a global threshold technique such as Otsu's method or Li's method, resulting in binary image. A median filter was then applied to eliminate potential local irregularities, which could cause false branching point detection. From the binary images, the vascular density was quantified (calculated as the ratio of pixels associated with the vessels divided by the total number of pixels in the image). For the other parameters, a skeleton of the images was first computed using ImageJ, then the total vascular length was quantified using the Measure Skeleton Length plug-in from ImageJ. The number of branch points was extracted from the Analyze Skeleton plug-in of ImageJ. All results were transferred to Microsoft Office Excel software and automatically rearranged using a lab custom-made program. As all images generated at each step of the processing were saved, a visual control was made to ensure that there were no aberrant results.
(§2) Statistical analysis was performed with Prism 7 software (GraphPad). For most of the experiments, 1-way ANOVA was used for multiple comparisons. Results are expressed as mean±SEM. For post hoc pairwise, the Dunnett's test was used. A value of *P<0.05, **P<0.01, ***P<0.001 or ****P<0.0001 denotes statistical significance. An in-group variation of around 15% in parameters related to blood vessel architecture changes has been previously observed by the inventors, therefore a difference between controls and mutant mice of around 20-30% was anticipated. It was therefore expected that a group of 8 mice per condition would reveal statistical differences.
(§3) Eyes were fixed in 4% paraformaldehyde (PFA) in PBS at room temperature for 10 min, retinas were dissected, post-fixed in 4% PFA in PBS at 4° C. overnight then processed for immunostaining. Retinas were permeabilized in PBS, 1% BSA and 0.5% Triton X-100 at 4° C. overnight, rinsed in PBS, washed twice in PBlec (PBS, pH 6.8, 1% Triton-X-100, 0.1 mM CaCl2, 0.1 mM MgCl2, 0.1 mM MnCl2), and then incubated in biotinylated Griffonia simplicifolia lectin (isolectin B4) (B-1205, Vector Laboratories, 1:50) in PBlec at 4° C. overnight. After 5 washes in PBS, samples were incubated with streptavidin Cy-3 (PA43001, Sigma-Aldrich, 1:100) and with a-SMA (clone 1A4) (F3777, Sigma-Aldrich) conjugated with FITC diluted in PBS, 0.5% BSA, and 0.25% X-100 at 4° C. for 2 h. After washing, flat whole-mount retinas were mounted in DAKO medium (S3023, Dako). Complete high-resolution 3-dimensional rendering of whole-mount retinas was acquired using Laser Scanning Microscope SP5 or SP8 (Leica).

[2] = Pup lethality / adverse effects in Eng-iKO mice; type: in vivo
Method: The Eng Flox/flox; cdh5-CreERT2 were injected with tamoxifen (50 μg) at P2 to induce nearly […] The same volume of vehicle was injected serving as control animals. Mice were then euthanized at P7 and retinas processed for immunofluorescence staining as described (Lebrin et al., as above).
(§4) The same volume of vehicle was injected serving as control animals. Mice were then euthanized at P7 and retinas processed for immunofluorescence staining as described (Lebrin et al., as above).

[3] = target: AKT2 (Homo sapiens, UniProt P31751); test: Co-crystal structure in complex with AKT2; type: binding; conditions: 2.32 Å co-crystal structure with AKT2
[4] = test system: AKT kinase in Pi3Kα or PTEN mutant cells lines (e.g. MCF7, BT474 or LnCAP); conditions: similar cell line; cited from earlier work
[5] = Safety/toxicity profile in wild-type neonatal mice
Text: C57Bl/6J pregnant females were provided by Janvier Labs. EngFlox/flox mice (Mahmoud et al., (2010), “Pathogenesis of arteriovenous malformations in the absence of endoglin”, Circulation Research. https://doi.org/10.1161/[…].109.211037) were crossed with Cdh5(PAC)-CreERT2 (12) to generate endothelial specific inducible Eng knockout. Animal housing and procedures were in accordance with the Dutch Government guidelines and directive 2010/63/EU of the European Parliament. All efforts were made to minimize the number of animals used and their suffering. The institutional Committee for Animal Welfare of Leiden University Medical Center (project number AVD1160020171628) approved all protocols. Male and female mice were used during the first postnatal week to study retinal angiogenesis.
Retinas were processed for immunofluorescence staining as described (Lebrin et al., (2010), “Thalidomide stimulates vessel maturation and reduces epistaxis in individuals with hereditary hemorrhagic telangiectasia”, Nature Medicine. https://doi.org/10.1038/nm.2131).

[6] = test system: AVM formation in Eng-iKO mice; test: Prevention of AVM formation in Eng-iKO mice (retinal vascular network); type: in vivo, mouse
Method: The Eng Flox/flox; cdh5-CreERT2 were injected with tamoxifen (50 μg) at P2 to […] once at P3, P4, P5 and P6. The same volume of vehicle was injected serving as control animals. Mice were then euthanized at P7 and retinas processed for immunofluorescence staining as described (Lebrin et al., as above).
as §4, §1, §2, §3

[7] = test system: nosebleeds in HHT patients; conditions: HHT patients (Lebrin et al.); cited from earlier work
[8] = Pharmacokinetics (PK) profile in neonate mice; type: in vivo, mouse
Method: Terminal blood samples collected at 24 h and 48 h post injections were collected from each mouse under isoflurane anaesthesia for the preparation of plasma. 4 neonate mice were used per time point in the study. Blood was collected into EDTA coated microvettes (Sartsed) for plasma preparation. Blood was centrifuged at 2700×g for 10 minutes and approximately 30 to 40 μl plasma was removed and aliquoted into polypropylene tubes (two aliquots per animal). Plasma samples were stored at −80° C. until bioanalysis. VAD044 compound levels in plasma samples was determined by LC-MS/MS.

[9] = once at P4, 5 to 25 mg·kg-1, i.p

Chain of AKT2 (P31751 whole entry): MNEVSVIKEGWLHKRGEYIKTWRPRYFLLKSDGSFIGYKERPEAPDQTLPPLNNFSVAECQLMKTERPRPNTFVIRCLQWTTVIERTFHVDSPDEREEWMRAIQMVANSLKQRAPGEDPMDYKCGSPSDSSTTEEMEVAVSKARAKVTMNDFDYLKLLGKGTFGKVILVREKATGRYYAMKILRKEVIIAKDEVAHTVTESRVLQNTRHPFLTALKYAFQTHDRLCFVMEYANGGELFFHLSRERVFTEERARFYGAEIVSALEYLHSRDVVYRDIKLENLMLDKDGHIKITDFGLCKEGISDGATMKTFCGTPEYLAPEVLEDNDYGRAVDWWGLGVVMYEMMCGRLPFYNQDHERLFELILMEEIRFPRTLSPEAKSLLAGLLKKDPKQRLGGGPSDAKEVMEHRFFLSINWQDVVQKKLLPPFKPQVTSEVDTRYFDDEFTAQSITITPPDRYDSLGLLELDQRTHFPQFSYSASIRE

Which results are given for `Cn1ncc(Cl)c1-c1cc(C(=O)N[C@H](CN)Cc2ccc(F)c(F)c2)oc1Cl` [Uprosertib]?
anti-angiogenic properties (overall conclusion) [1]: potent inhibitor of angiogenesis; also recorded: potent antiangiogenic properties; number of branch points [1, 9]: marked decrease; radial expansion [1, 9]: slight decrease; vascular area [1, 9]: marked decrease; pups mortality ([2]; 5 mg·kg−1 injected twice at P3 and P6): high levels of pups mortality; pup death ([2]; Eng-iKO mice, 1 to 5 mg·kg−1 bodyweight): death of the majority of the pups; pup death ([2]; Eng-iKO mice, two injections at P3 and P5): death of the majority of the pups

With `CCCN1C(=O)COc2nc(-c3ccc([C@]4(N)C[C@](C)(O)C4)cc3)c(-c3ccccc3)cc21` [Compound 6] as the molecule, how does the “binding site in co-crystal structure” value [3] read?
Its value is “binds in an allosteric binding pocket”.

Which “cellular inhibitory activity on AKT” value [4] does the source give for `CCCCCCCCCCCCCCCCCCOP(=O)([O-])OC1CC[N+](C)(C)CC1` [Perifosine] here?
Its value is “uM range”.

And the “anti-angiogenic properties (overall conclusion)” value [1]?
The value was “weak anti-angiogenic properties”.

What about the vascular radial expansion ([1]; once at P4, 100 mg·kg-1) of the same molecule?
Its vascular radial expansion is “reduced vascular radial expansion”.

And the effect on angiogenesis ([1]; once at P4, 5 to 10 mg·kg-1)?
The effect on angiogenesis was “did not affect angiogenesis”.

What about the “number of branch points and vascular area of the retinal vascular bed” value ([1]; once at P4, 25 to 100 mg·kg-1) of the same molecule?
The value was “slight reduction”.

What about the weight gain ([5]; injected once at P4, 50 mg·kg-1) of the same molecule?
The weight gain was “delayed weight gain”.

What about the pup mortality ([5]; injected once at P4, 100 mg·kg-1) of the same molecule?
The pup mortality was “induced important pup mortality”.

And the adverse effects ([5]; injected once at P4, 5 to 25 mg·kg-1)?
Its adverse effects is “No adverse effects”.

And the “prevention of AVM formation” value ([6]; Eng-iKO mice, 25 or 50 mg·kg-1 i.p at P3 and P5, or 10 mg·kg-1 daily P3 to P6)?
Its value is “unable to prevent AVM formation”.

What about the “inhibition of angiogenesis in Eng-iKO mice” value ([6]; Eng-iKO mice, doses and injection schemes tested) of the same molecule?
The value was “did not inhibit angiogenesis”.

What about the “effects in shunt formation” value ([6]; HHT1 mouse model, 25 and 50 mg·kg-1) of the same molecule?
The value was “no significant effects”.

And the “efficacy on shunt formation” value ([6]; injected every day at 10 mg·kg-1)?
Its value is “trend for efficacy was observed but statistical significance was not achieved”.

And the pup death ([2]; daily intraperitoneal administration at 25 mg·kg-1)?
Its pup death is “resulted in pup death”.

Which “severity and frequency of nosebleeds” value [7] does the source give for `O=C1CCC(N2C(=O)c3ccccc3C2=O)C(=O)N1` (centres unmarked) [Thalidomide] here?
Its value is “reduce the severity and frequency of nosebleeds”.

For `CCN1C(=O)COc2nc(-c3ccc([C@]4(N)C[C@@H](O)C4)cc3)c(-c3ccccc3)cc21` [VAD044 free base, 6-(4-(1-amino-3-hydroxycyclobutyl)phenyl)-1-ethyl-7-phenyl-1H-pyrido[2,3-b][1,4]oxazin-2(3H)-one], which Cavg (effective concentration) [8] is on record?
Its Cavg (effective concentration) is 22.9 ng/mL.
